Experimental data published in article PMC3205184, “Competitive binding at a nicotinic receptor transmembrane site of two α7-selective positive allosteric modulators with differing effects on agonist-evoked desensitization” (Neuropharmacology, 2011).

Biological target: T1, α7 nicotinic acetylcholine receptor (α7 nAChR) (Rattus norvegicus, UniProt Q05941)
T1 construct: gene Chrna7
Assay: two-electrode voltage clamp in Xenopus oocytes; potentiation of EC20 acetylcholine responses, with site-directed mutants
Type: cell-based

T1 sequence (Q05941 23-502): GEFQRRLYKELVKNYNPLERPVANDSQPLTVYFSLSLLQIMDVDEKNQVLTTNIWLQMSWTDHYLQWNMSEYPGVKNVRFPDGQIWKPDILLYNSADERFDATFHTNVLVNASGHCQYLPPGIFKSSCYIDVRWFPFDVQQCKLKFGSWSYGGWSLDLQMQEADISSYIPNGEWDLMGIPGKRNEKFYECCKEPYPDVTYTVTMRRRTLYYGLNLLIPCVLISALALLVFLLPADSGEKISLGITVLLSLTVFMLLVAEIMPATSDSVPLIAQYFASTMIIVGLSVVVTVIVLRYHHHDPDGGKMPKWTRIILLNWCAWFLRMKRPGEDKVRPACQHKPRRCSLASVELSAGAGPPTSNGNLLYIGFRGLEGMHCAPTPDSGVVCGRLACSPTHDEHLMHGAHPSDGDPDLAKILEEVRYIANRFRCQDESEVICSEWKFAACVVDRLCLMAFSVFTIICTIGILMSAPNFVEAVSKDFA

SMILES: O=C(Nc1cc(Cl)ccc1O)Nc1cc(C(F)(F)F)ccc1Cl [NS1738]
- EC50: 6.7 ± 1.8 µM
